The text below walks through data of ChEMBL document CHEMBL4152186, “Recent advances in the search for novel 5-lipoxygenase inhibitors for the treatment of asthma” (Eur J Med Chem, 2018).

The target in assay [1] is T1, Polyunsaturated fatty acid 5-lipoxygenase (Homo sapiens, UniProt P09917).
T1 sequence (P09917 whole entry): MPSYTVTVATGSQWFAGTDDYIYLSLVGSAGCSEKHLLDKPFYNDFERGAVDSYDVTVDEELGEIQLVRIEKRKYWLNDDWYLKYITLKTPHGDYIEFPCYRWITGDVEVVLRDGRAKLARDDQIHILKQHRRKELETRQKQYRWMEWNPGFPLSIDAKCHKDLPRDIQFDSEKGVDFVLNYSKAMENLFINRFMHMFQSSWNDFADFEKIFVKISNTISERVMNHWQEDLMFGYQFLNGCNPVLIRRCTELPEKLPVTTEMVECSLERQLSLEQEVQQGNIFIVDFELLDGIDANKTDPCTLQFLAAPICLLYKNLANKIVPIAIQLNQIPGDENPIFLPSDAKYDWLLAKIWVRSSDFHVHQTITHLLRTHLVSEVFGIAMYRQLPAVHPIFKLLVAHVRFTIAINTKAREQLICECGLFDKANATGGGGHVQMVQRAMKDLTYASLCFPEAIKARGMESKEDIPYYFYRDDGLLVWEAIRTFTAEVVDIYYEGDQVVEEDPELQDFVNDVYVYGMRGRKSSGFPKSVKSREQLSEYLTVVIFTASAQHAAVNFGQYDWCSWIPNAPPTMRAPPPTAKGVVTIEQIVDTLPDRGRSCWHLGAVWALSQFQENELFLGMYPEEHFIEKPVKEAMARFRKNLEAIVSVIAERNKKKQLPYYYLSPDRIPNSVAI
Kind of assay: Inhibition of 5-LOX (unknown origin).

The target of assay [2] is T2, Prostaglandin G/H synthase 2 (Homo sapiens, UniProt P35354).
T2 sequence (P35354 whole entry): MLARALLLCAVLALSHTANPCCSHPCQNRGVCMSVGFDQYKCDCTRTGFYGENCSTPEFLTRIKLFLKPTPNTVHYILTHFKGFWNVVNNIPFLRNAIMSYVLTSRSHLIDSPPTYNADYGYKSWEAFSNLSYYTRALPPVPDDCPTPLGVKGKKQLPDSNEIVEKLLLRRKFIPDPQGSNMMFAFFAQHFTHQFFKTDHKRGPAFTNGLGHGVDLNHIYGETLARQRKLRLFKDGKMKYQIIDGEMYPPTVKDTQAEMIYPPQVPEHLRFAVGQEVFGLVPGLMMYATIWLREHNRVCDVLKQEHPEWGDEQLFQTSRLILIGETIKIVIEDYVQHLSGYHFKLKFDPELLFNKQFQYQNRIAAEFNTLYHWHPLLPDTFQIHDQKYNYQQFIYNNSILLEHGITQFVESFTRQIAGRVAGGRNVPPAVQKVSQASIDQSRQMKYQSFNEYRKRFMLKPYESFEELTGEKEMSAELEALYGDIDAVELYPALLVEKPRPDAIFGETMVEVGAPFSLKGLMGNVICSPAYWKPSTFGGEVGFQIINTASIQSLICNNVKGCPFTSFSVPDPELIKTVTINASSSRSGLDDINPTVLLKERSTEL
Kind of assay: Inhibition of COX2 (unknown origin).

In general, IC50 refers to the concentration needed to halve the response being measured. On to `O=C(O)c1noc(-c2ccc(OCc3ccc4ccccc4n3)cc2)c1-c1ccc(Cl)cc1`, for which, in assay [1], the IC50 was in the range of 65 to 1250 nM. Regarding `CS(=O)(=O)c1ccc(-c2nc(SCCN(O)C(N)=O)nn2-c2ccc(Br)cc2)cc1`, the IC50 in assay [1] came to 850 nM; in assay [2], 150 nM. `Cc1cc(Nc2ncc(-c3ccc(F)cc3)o2)cc(C)c1O`: the IC50 in assay [1] is 65 to 1250 nM. As for `CC[C@](O)(c1nnc(NCc2ccc3c(-c4ccc(F)cc4)cc(=O)oc3c2)o1)C(F)(F)F` [SETILEUTON], the IC50 in assay [1] was in the range of 65 to 1250 nM.
